The first assay has as its target T1, Human immunodeficiency virus type 1 protease (Human immunodeficiency virus 1, UniProt Q72874). In words: In vitro inhibition of HIV-1 protease.
Compound `C[C@@H](NC(=O)[C@H](Cc1ccccc1)C[C@H](O)[C@H](Cc1ccccc1)NC(=O)OC(C)(C)C)C1CCCCC1` had an IC50 of 146 nM.
Still for that read-out and setting: in the case of `CC(C)(C)OC(=O)N[C@@H](Cc1ccccc1)[C@@H](O)C[C@@H](Cc1ccc(C(C)(C)C)cc1)C(=O)N[C@H]1c2ccccc2C[C@H]1O` it was 0.17 nM.
Consider `CC(C)(C)OC(=O)N[C@@H](Cc1ccccc1)[C@@H](O)C[C@@H](CSc1ccccc1)C(=O)N[C@H]1c2ccccc2C[C@H]1O`, for which the IC50 is 0.25 nM.
On the same count and under the same terms, in the case of `CC(C)(C)OC(=O)N[C@@H](Cc1ccccc1)[C@@H](O)C[C@@H](Cc1ccccc1)C(=O)N[C@H]1c2ccccc2C[C@H]1O` it was 0.25 nM; in that of `C=CC[C@H](C[C@H](O)[C@H](Cc1ccccc1)NC(=O)OC(C)(C)C)C(=O)N[C@H]1c2ccccc2C[C@H]1O`, 27.5 nM; in that of `CC(C)(C)OC(=O)N[C@@H](Cc1ccccc1)[C@@H](O)C[C@@H](Cc1ccccc1)C(=O)N[C@H]1C=CC[C@H]1O`, 9.53 nM.
The same measure, in the same setting: in the case of `CC(C)(C)OC(=O)N[C@@H](Cc1ccccc1)[C@@H](O)C[C@@H](Cc1ccccc1)C(=O)N[C@@H]1CCc2ccccc21` it was 34.2 nM.
Still for that read-out and setting: with `CC(C)(C)OC(=O)N[C@@H](Cc1ccccc1)[C@@H](O)C[C@@H](Cc1ccccc1)C(=O)N[C@H](CO)c1ccccc1` the figure was 38.6 nM; with `CC(C)(C)OC(=O)N[C@@H](Cc1ccccc1)[C@@H](O)C[C@@](C)(Cc1ccccc1)C(=O)N[C@H]1c2ccccc2C[C@H]1O`, 7.7 nM.
In the case of `CC(C)[C@H](NC(=O)[C@H](Cc1ccccc1)C[C@H](O)[C@H](Cc1ccccc1)NC(=O)OC(C)(C)C)C(=O)O`, the IC50 amounted to 161 nM.
The same measure, in the same setting: with `COC(=O)[C@@H]1Cc2ccccc2[C@@H]1NC(=O)[C@H](Cc1ccccc1)C[C@H](O)[C@H](Cc1ccccc1)NC(=O)OC(C)(C)C` the figure was 66.3 nM; with `CC(C)(C)OC(=O)N[C@@H](Cc1ccccc1)[C@@H](O)C[C@@H](Cc1ccccc1)C(=O)N[C@H]1c2ccccc2OC[C@H]1O`, 0.18 nM; with `CC(C)(C)OC(=O)N[C@@H](Cc1ccccc1)[C@@H](O)C[C@@H](Cc1ccccc1)C(=O)N[C@H]1c2ccccc2CC[C@H]1O`, 0.7 nM.
Still for that read-out and setting: with `CC(C)(C)OC(=O)N[C@@H](Cc1ccccc1)[C@@H](O)C[C@@H](Cc1ccccc1)C(=O)N[C@@]1(C)c2ccccc2C[C@H]1O` the figure was 212 nM; with `CC(C)(C)OC(=O)N[C@@H](Cc1ccccc1)[C@@H](O)C[C@@H](Cc1ccccc1)C(=O)N[C@H](CO)Cc1ccccc1`, 690 nM; with `CC(C)(C)OC(=O)N[C@@H](Cc1ccccc1)[C@@H](O)C[C@@H](Cc1ccncc1)C(=O)N[C@H]1c2ccccc2C[C@H]1O`, 0.53 nM.
Compound `CC(C)(C)OC(=O)N[C@@H](Cc1ccccc1)[C@@H](O)C[C@@H](Cc1ccccc1)C(=O)N[C@@H]1c2ccccc2OC[C@@H]1O` had an IC50 of 40.5 nM.
Same read-out and setting: with `CC(C)(C)OC(=O)N[C@@H](Cc1ccccc1)[C@@H](O)C[C@@H](CC(=O)c1ccccc1)C(=O)N[C@H]1c2ccccc2C[C@H]1O` the figure was 5.42 nM.
Still for that read-out and setting: with `CC(C)(C)OC(=O)N[C@@H](Cc1ccccc1)[C@@H](O)C[C@@H](CCCc1ccccc1)C(=O)N[C@H]1c2ccccc2[C@@H](O)[C@H]1O` the figure was 0.19 nM.
On the same count and under the same terms, with `CC(C)(C)OC(=O)N[C@@H](Cc1ccccc1)[C@@H](O)C[C@@H](Cc1ccccc1)C(=O)N[C@H]1CCCC[C@H]1O` the figure was 122 nM; with `CC(C)(C)OC(=O)N[C@@H](Cc1ccccc1)[C@@H](O)C[C@@H](Cc1ccccc1)C(=O)NCC1CCCCC1`, 30000 nM; with `CC(C)(C)OC(=O)N[C@@H](Cc1ccccc1)[C@@H](O)CCC(=O)N[C@H]1c2ccccc2C[C@H]1O`, 2930 nM.
Consider `CC(C)(C)OC(=O)N[C@@H](Cc1ccccc1)[C@@H](O)C[C@@H](Cc1ccccc1)C(=O)NCc1ccccc1`, for which inhibition was half-maximal at 114 nM (IC50).

The target of a further assay is T1, Human immunodeficiency virus type 1 protease. Nature of the assay: Inhibition of HIV-1 protease was determined in vitro.
On to `CC(C)(C)OC(=O)N[C@@H](Cc1ccc(O)cc1)[C@@H](O)[C@@H]1CCC[C@H]1C(=O)NCc1ccccc1`, for which the IC50 was 589 nM.
Still for that read-out and setting: with `CC(C)(C)NC(=O)[C@@H]1C[C@@H]2CCCC[C@@H]2CN1C[C@@H](O)C[C@@H](Cc1ccccc1)C(=O)N[C@H]1c2ccccc2C[C@H]1O` the figure was 7.59 nM; with `CC(C)(C)NC(=O)[C@@H]1C[C@@H]2CCCC[C@@H]2CN1CC(O)CN1C[C@H]2CCCC[C@H]2C[C@H]1C(=O)NC(C)(C)C`, 6760 nM; with `CC(C)(C)OC(=O)N[C@@H](Cc1ccccc1)[C@@H](O)CC(=O)NC1c2ccccc2C[C@H]1O` (stereo not given in full), 568 nM.
Same read-out and setting: in the case of `O=C(N[C@H]1c2ccccc2C[C@H]1O)[C@H](Cc1ccccc1)CC(O)C[C@@H](Cc1ccccc1)C(=O)N[C@H]1c2ccccc2C[C@H]1O` it was 0.692 nM; in that of `CC(C)(C)OC(=O)N[C@@H](Cc1ccccc1)[C@H](O)CN[C@@H](Cc1ccccc1)C(=O)N[C@H]1c2ccccc2C[C@H]1O`, 229 nM.
`CC(C)(C)NC(=O)[C@@H]1C[C@@H]2CCCC[C@@H]2CN1CC(O)[C@H](Cc1ccccc1)NC(=O)OC(C)(C)C` (stereo not given in full) had an IC50 of 3020 nM.
The same measure, in the same setting: in the case of `CC(C)(C)OC(=O)N[C@@H](Cc1ccccc1)[C@@H](O)/C=C(/Cc1ccccc1)C(=O)N[C@H]1c2ccccc2C[C@H]1O` it was 1.29 nM; in that of `CC(C)(C)OC(=O)N[C@@H](Cc1ccccc1)[C@@H](O)C[C@]1(Cc2ccccc2)CCCN([C@H]2c3ccccc3C[C@H]2O)C1=O`, 1270 nM; in that of `CC(C)(C)OC(=O)CN(Cc1ccccc1)C[C@@H](O)[C@H](Cc1ccccc1)NC(=O)OC(C)(C)C`, 4680 nM.
The same measure, in the same setting: in the case of `CC(C)(C)OC(=O)N[C@@H](Cc1ccccc1)[C@@H](O)[C@H](O)[C@H](Cc1ccccc1)NC(=O)OC(C)(C)C` it was 1370 nM.
Still for that read-out and setting: in the case of `CC(C)[C@H](NC(=O)[C@H](Cc1ccccc1)C[C@H](O)CN1C[C@H]2CCCC[C@H]2C[C@H]1C(=O)NC(C)(C)C)C(=O)Nc1ccc2ccccc2n1` it was 52.8 nM.

The values are drawn from ChEMBL document CHEMBL1128438, “A priori prediction of activity for HIV-1 protease inhibitors employing energy minimization in the active site” (J Med Chem, 1995).
